Experimental data from PubChem BioAssay (NCI).
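The compound was tested at five concentrations on cells cultured in 96-well plates, with a 48-hour exposure period. At the GI50, growth is halved. At the TGI there is no net growth.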

Tests used:
Assay in all cases: NCI-60 cell line screen, 48 h
SK-MEL-5 melanoma = system: SK-MEL-5 melanoma
HS 578T breast = system: HS 578T breast
SF-539 CNS = system: SF-539 CNS
ACHN renal = system: ACHN renal
SF-268 CNS = system: SF-268 CNS
MCF7 breast = system: MCF7 breast
SW-620 colon = system: SW-620 colon
SK-OV-3 ovarian = system: SK-OV-3 ovarian
RPMI-8226 leukemia = system: RPMI-8226 leukemia
M14 melanoma = system: M14 melanoma
HOP-92 NSCLC = system: HOP-92 NSCLC
SN12C renal = system: SN12C renal
BT-549 breast = system: BT-549 breast
HOP-62 NSCLC = system: HOP-62 NSCLC
DU-145 prostate = system: DU-145 prostate
SF-295 CNS = system: SF-295 CNS
MDA-MB-435 = system: MDA-MB-435
HL-60(TB) leukemia = system: HL-60(TB) leukemia
HCT-116 colon = system: HCT-116 colon
UO-31 renal = system: UO-31 renal
OVCAR-4 ovarian = system: OVCAR-4 ovarian
SK-MEL-28 melanoma = system: SK-MEL-28 melanoma
K-562 leukemia = system: K-562 leukemia
MOLT-4 leukemia = system: MOLT-4 leukemia
CCRF-CEM leukemia = system: CCRF-CEM leukemia
UACC-62 melanoma = system: UACC-62 melanoma
HT29 colon = system: HT29 colon
OVCAR-8 ovarian = system: OVCAR-8 ovarian
TK-10 renal = system: TK-10 renal
IGROV1 ovarian = system: IGROV1 ovarian
786-0 renal = system: 786-0 renal
SNB-19 CNS = system: SNB-19 CNS
SR leukemia = system: SR leukemia
SNB-75 CNS = system: SNB-75 CNS
KM12 colon = system: KM12 colon
UACC-257 melanoma = system: UACC-257 melanoma
RXF 393 renal = system: RXF 393 renal
U251 CNS = system: U251 CNS
EKVX NSCLC = system: EKVX NSCLC
COLO 205 colon = system: COLO 205 colon
OVCAR-3 ovarian = system: OVCAR-3 ovarian
HCT-15 colon = system: HCT-15 colon
LOX IMVI melanoma = system: LOX IMVI melanoma
PC-3 prostate = system: PC-3 prostate
NCI-H460 lung = system: NCI-H460 lung
T-47D breast = system: T-47D breast
A549 NSCLC = system: A549 NSCLC
SK-MEL-2 melanoma = system: SK-MEL-2 melanoma
NCI-H226 lung = system: NCI-H226 lung
NCI-H522 lung = system: NCI-H522 lung
MDA-MB-231 breast = system: MDA-MB-231 breast
CAKI-1 renal = system: CAKI-1 renal
NCI/ADR-RES ovarian = system: NCI/ADR-RES ovarian
NCI-H23 lung = system: NCI-H23 lung
A498 renal = system: A498 renal
MALME-3M melanoma = system: MALME-3M melanoma

For `O=S(=O)(NC(=S)Nc1ccccc1)c1ccc(N2N=C3c4ccccc4CC3C2c2ccc(Cl)cc2)cc1` (stereo not drawn), the GI50 (SK-MEL-5 melanoma) was 20.4 µM, the TGI (SK-MEL-5 melanoma) was 40.9 µM and the GI50 (HS 578T breast) was 30 µM. It also gave a TGI (HS 578T breast) of 68.2 µM, a GI50 (SF-539 CNS) of 24.2 µM and a TGI (SF-539 CNS) of 45.7 µM. The GI50 (ACHN renal) was 25.8 µM, the TGI (ACHN renal) was 60.7 µM and the GI50 (SF-268 CNS) was 20.7 µM. It also gave a TGI (SF-268 CNS) of 51.1 µM, a GI50 (MCF7 breast) of 23.5 µM and a TGI (MCF7 breast) of 54.3 µM. The GI50 (SW-620 colon) was 29.7 µM, the TGI (SW-620 colon) was 75.7 µM and the GI50 (SK-OV-3 ovarian) was 40.7 µM. The TGI (SK-OV-3 ovarian) was over 100 µM, the GI50 (RPMI-8226 leukemia) was 19.6 µM and the TGI (RPMI-8226 leukemia) was 66.7 µM. It also gave a GI50 (M14 melanoma) of 36.4 µM, a TGI (M14 melanoma) of over 100 µM and a GI50 (HOP-92 NSCLC) of 18.1 µM. For the same compound, the TGI (HOP-92 NSCLC) was 40.2 µM, the GI50 (SN12C renal) was 24.5 µM and the TGI (SN12C renal) was 55.6 µM. For the same compound, the GI50 (BT-549 breast) was 33.2 µM, the TGI (BT-549 breast) was 78.3 µM and the GI50 (HOP-62 NSCLC) was 41.3 µM. The TGI (HOP-62 NSCLC) was over 100 µM, the GI50 (DU-145 prostate) was 24.9 µM and the TGI (DU-145 prostate) was 51.4 µM. The GI50 (SF-295 CNS) was 35.5 µM, the TGI (SF-295 CNS) was over 100 µM and the GI50 (MDA-MB-435) was 44.8 µM. For the same compound, the TGI (MDA-MB-435) was over 100 µM, the GI50 (HL-60(TB) leukemia) was 21 µM and the TGI (HL-60(TB) leukemia) was 46.2 µM. For the same compound, the GI50 (HCT-116 colon) was 21.6 µM, the TGI (HCT-116 colon) was 55.2 µM and the GI50 (UO-31 renal) was 19 µM. The TGI (UO-31 renal) was 38.1 µM, the GI50 (OVCAR-4 ovarian) was 42.2 µM and the TGI (OVCAR-4 ovarian) was over 100 µM. The GI50 (SK-MEL-28 melanoma) was 29.4 µM, the TGI (SK-MEL-28 melanoma) was 77 µM and the GI50 (K-562 leukemia) was 16.4 µM. It also gave a TGI (K-562 leukemia) of 42.1 µM, a GI50 (MOLT-4 leukemia) of 15.9 µM and a TGI (MOLT-4 leukemia) of 39.3 µM. It also gave a GI50 (CCRF-CEM leukemia) of 19.7 µM, a TGI (CCRF-CEM leukemia) of 57.5 µM and a GI50 (UACC-62 melanoma) of 18.3 µM. It also gave a TGI (UACC-62 melanoma) of 38.8 µM, a GI50 (HT29 colon) of 41.6 µM and a TGI (HT29 colon) of over 100 µM. The GI50 (OVCAR-8 ovarian) was 26.8 µM, the TGI (OVCAR-8 ovarian) was 71.1 µM and the GI50 (TK-10 renal) was 30.2 µM. It also gave a TGI (TK-10 renal) of 99.4 µM, a GI50 (IGROV1 ovarian) of 20.2 µM and a TGI (IGROV1 ovarian) of 49.3 µM. For the same compound, the GI50 (786-0 renal) was 32.4 µM, the TGI (786-0 renal) was over 100 µM and the GI50 (SNB-19 CNS) was 21.8 µM. It also gave a TGI (SNB-19 CNS) of 46.4 µM, a GI50 (SR leukemia) of 14.7 µM and a TGI (SR leukemia) of 36.6 µM. It also gave a GI50 (SNB-75 CNS) of 39.7 µM, a TGI (SNB-75 CNS) of over 100 µM and a GI50 (KM12 colon) of 19.4 µM. It also gave a TGI (KM12 colon) of 55.3 µM, a GI50 (UACC-257 melanoma) of 29.5 µM and a TGI (UACC-257 melanoma) of 70.5 µM. The GI50 (RXF 393 renal) was 43.1 µM, the TGI (RXF 393 renal) was over 100 µM and the GI50 (U251 CNS) was 19.7 µM. For the same compound, the TGI (U251 CNS) was 39.9 µM, the GI50 (EKVX NSCLC) was 27.4 µM and the TGI (EKVX NSCLC) was 60.5 µM. It also gave a GI50 (COLO 205 colon) of 21.6 µM, a TGI (COLO 205 colon) of 44.3 µM and a GI50 (OVCAR-3 ovarian) of 46.3 µM. The TGI (OVCAR-3 ovarian) was over 100 µM, the GI50 (HCT-15 colon) was 22.4 µM and the TGI (HCT-15 colon) was 54.8 µM. The GI50 (LOX IMVI melanoma) was 19.5 µM, the TGI (LOX IMVI melanoma) was 39 µM and the GI50 (PC-3 prostate) was 13.8 µM. For the same compound, the TGI (PC-3 prostate) was 28.1 µM, the GI50 (NCI-H460 lung) was 22.2 µM and the TGI (NCI-H460 lung) was 60 µM. For the same compound, the GI50 (T-47D breast) was 36.3 µM, the TGI (T-47D breast) was over 100 µM and the GI50 (A549 NSCLC) was 20.9 µM. The TGI (A549 NSCLC) was 51.7 µM, the GI50 (SK-MEL-2 melanoma) was 23.4 µM and the TGI (SK-MEL-2 melanoma) was 47.9 µM. For the same compound, the GI50 (NCI-H226 lung) was 41.4 µM, the TGI (NCI-H226 lung) was over 100 µM and the GI50 (NCI-H522 lung) was 18.1 µM. For the same compound, the TGI (NCI-H522 lung) was 38.6 µM, the GI50 (MDA-MB-231 breast) was 87.1 µM and the TGI (MDA-MB-231 breast) was over 100 µM. The GI50 (CAKI-1 renal) was 26.1 µM and the TGI (CAKI-1 renal) was 91.4 µM.

`N/C(=N\Nc1nc2cc([N+](=O)[O-])ccc2o1)c1ccccn1` was tested, and the TGI (SK-MEL-5 melanoma) was 1.45 µM, the TGI (HS 578T breast) was over 100 µM and the TGI (SF-539 CNS) was 1 µM. The TGI (ACHN renal) was 9.6 µM, the TGI (SF-268 CNS) was 1.62 µM and the TGI (SW-620 colon) was over 100 µM. The TGI (SK-OV-3 ovarian) was 6.38 µM, the TGI (RPMI-8226 leukemia) was 4.83 µM and the TGI (HOP-92 NSCLC) was 5.71 µM. The TGI (SN12C renal) was 3.85 µM, the TGI (NCI/ADR-RES ovarian) was 4.45 µM and the TGI (BT-549 breast) was 3.68 µM. For the same compound, the TGI (HOP-62 NSCLC) was 2.8 µM, the TGI (DU-145 prostate) was 1.11 µM and the TGI (SF-295 CNS) was 14 µM. It also gave a TGI (MDA-MB-435) of over 100 µM, a TGI (NCI-H23 lung) of 4.26 µM and a TGI (HCT-116 colon) of 0.222 µM. The TGI (A498 renal) was 3.6 µM, the TGI (K-562 leukemia) was over 100 µM and the TGI (UACC-62 melanoma) was 1.54 µM. For the same compound, the TGI (OVCAR-8 ovarian) was 10.6 µM, the TGI (TK-10 renal) was 5.51 µM and the TGI (786-0 renal) was 1.93 µM. The TGI (SR leukemia) was 0.0696 µM, the TGI (SNB-75 CNS) was 2.13 µM and the TGI (UACC-257 melanoma) was 0.341 µM. For the same compound, the TGI (RXF 393 renal) was 0.497 µM, the TGI (U251 CNS) was 1.23 µM and the TGI (MALME-3M melanoma) was 58.4 µM. The TGI (EKVX NSCLC) was 0.202 µM, the TGI (LOX IMVI melanoma) was 3.68 µM and the TGI (PC-3 prostate) was 6.14 µM. For the same compound, the TGI (NCI-H460 lung) was 1.19 µM, the TGI (T-47D breast) was 0.796 µM and the TGI (SK-MEL-2 melanoma) was 2.63 µM. For the same compound, the TGI (NCI-H226 lung) was 38 µM, the TGI (MDA-MB-231 breast) was 2.13 µM and the TGI (CAKI-1 renal) was 8.44 µM.
